Measured values as given in US12180196B2, “Azetidine-substituted pyridine and pyrazine compounds as inhibitors of cannabinoid receptor 2” (HOFFMANN-LA ROCHE INC., priority 2018, dated 2024).

Molecular target: human CB2 (Homo sapiens (Human), UniProt P34972)
Test: Radioligand binding assay, human CB2 (CNR2) membranes, [3H]-CP-55,940
Details: HEK cell membranes, [3H]-CP-55,940 radioligand
Description: Radioligand Binding Assay
The affinity of the compounds of the invention for cannabinoid CB1 receptors was determined using recommended amounts of membrane preparations (PerkinElmer) of human embryonic kidney (HEK) cells expressing the human CNR1 or CNR2 receptors in conjunction with 1.5 or 2.6 nM [3H]-CP-55,940 (Perkin Elmer) as radioligand, respectively. Binding was performed in binding buffer (50 mM Tris, 5 mM MgCl2, 2.5 mM EDTA, and 0.5% (wt/vol) fatty acid free BSA, pH 7.4 for CB1 receptor and 50 mM Tris, 5 mM MgCl2, 2.5 mM EGTA, and 0.1% (wt/vol) fatty acid free BSA, pH 7.4 for CB2 receptor) in a total volume of 0.2 ml for 1 h at 30° C. shaking. The reaction was terminated by rapid filtration through microfiltration plates coated with 0.5% polyethylenimine (UniFilter GF/B filter plate; Packard). Bound radioactivity was analyzed for Ki using nonlinear regression analysis (Activity Base, ID Business Solution, Limited), with the Kd values for [3H]CP55,940 determined from saturation experiments. The compounds of formula (I) show an excellent affinity for the CB2 receptor.
The compounds according to formula (I) have an activity in the above assay (Ki) between 0.5 nM and 10 μM. Particular compounds of formula (I) have an activity in the above assay (Ki) between 0.5 nM and 3 μM. Other particular compounds of formula (I) have an activity in the above assay (Ki) between 0.5 nM and 100 nM.

Sequence of human CB2 (P34972 whole entry): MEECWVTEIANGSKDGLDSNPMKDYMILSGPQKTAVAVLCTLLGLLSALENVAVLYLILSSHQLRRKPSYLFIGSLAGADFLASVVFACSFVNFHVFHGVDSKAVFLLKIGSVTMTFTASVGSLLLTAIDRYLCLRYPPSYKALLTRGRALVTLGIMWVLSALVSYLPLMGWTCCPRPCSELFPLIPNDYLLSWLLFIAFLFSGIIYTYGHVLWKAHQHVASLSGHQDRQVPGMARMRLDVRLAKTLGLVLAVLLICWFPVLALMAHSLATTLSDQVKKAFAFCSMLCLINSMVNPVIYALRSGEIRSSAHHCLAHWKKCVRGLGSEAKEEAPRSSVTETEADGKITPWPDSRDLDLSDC

Row | SMILES | Ki
1 | CCOC(=O)C(CC)(CC)NC(=O)c1ccc(N2CC(OCCCF)C2)c(OCC2CC2)n1 [Example 1, Ethyl 2-({6-(cyclopropylmethoxy)-5-[3-(3-fluoropropoxy)azetidin-1-yl]pyridine-2-carbonyl}amino)-2-ethylbutanoate] | 19 nM
2 | CCOC(=O)C(CC)(CC)NC(=O)c1ccc(N2CC(OCCF)C2)c(OCC2CC2)n1 [Example 2, Ethyl 2-({6-(cyclopropylmethoxy)-5-[3-(2-fluoroethoxy)azetidin-1-yl]pyridine-2-carbonyl}amino)-2-ethylbutanoate] | 5 nM
3 | CCOC(=O)C(CC)(CC)NC(=O)c1ccc(N2CC(F)C2)c(OCC2CC2)n1 [Example 4, Ethyl 2-{[6-(cyclopropylmethoxy)-5-(3-fluoroazetidin-1-yl)pyridine-2-carbonyl]amino}-2-ethylbutanoate] | 6 nM
4 | NC(=O)CC1(NC(=O)c2ccc(N3CC(OCCF)C3)c(OCC3CC3)n2)COC1 [Example 5, N-[3-(2-Amino-2-oxoethyl)oxetan-3-yl]-6-(cyclopropylmethoxy)-5-[3-(2-fluoroethoxy)azetidin-1-yl]pyridine-2-carboxamide] | 447 nM
